Source: patent publication US20250127168A1, “METHOD FOR PATHOGENS, MICROORGANISMS, AND PARASITES INACTIVATION” (New York Blood Center, Inc., priority 2018, published 2025)

Tests used:
[1] = test system: Bovine viral diarrhea virus (BVDV); assay: Viral inactivation in RS, endpoint dilution assay; type: cell-based; settings: 100 μM, RT
Description: (§1) The porcine parvovirus (PPV) was inactivated by using compound VI and compound X. Treatments were conducted in RS (pH 6.9) at RT with 100 μM using compound VI and compound X and 10% virus spike. Residual compounds were quenched by incubation with 10 mM Na2S2O3 for 2 hours at RT. Virus titers, expressed as Log10TCID50/mL, were determined using the standard endpoint dilution assay with permissive to PPV porcine testis cells. After the incubation of indicator cells for 6 days, infected wells were counted under microscope by visual inspection. To confirm the results, secondary infection using conditioned media from the first plate wells as samples was conducted.
Bovine viral diarrhea virus (BVDV) was inactivated by using compound VI and compound X. The protocol used for […] except the indicator cells, which were bovine turbinate cells.

[2] = test system: Y. enterocolitica; assay: Bacterial inactivation in WB, LB and RBCC, growth/no growth; type: cell-based; parameters: key: “+” Growth; “−” No growth; settings: 6 h at RT
Description: (§2) Two G− species, Y. enterocolitica and P. fluorescens, both psychrophiles, and two G+ bacteria, S. epidermids and B. cereus, all known blood contaminants, were used in this study. All blood samples were spiked with approximately 0.1% bacterial stock suspension prepared in RS and left for equilibration at RT for 30 min. Freshly grown overnight bacterial cultures were used for each spiking. Compound VI and compound X were added to spiked blood to final concentrations of 100, 250, and 500 μM. Control samples (Ctr) received solvent only. Incubation was carried out at RT for 6 h followed by the addition of an inactivator, 100x Na thiosulfate, and additional incubation at RT for 2 h. After the incubation and quenching, aliquots were taken for serial dilutions and plate drop-counting and the bacterial growth-promoting solution (containing tryptone, peptone, yeast extract and casamino acids) was added to the remaining volumes. The growth/no growth results were confirmed by streaking agar plates.

[3] = test system: S. epidermidis; assay: as above; type: cell-based; parameters: key: “+” Growth; “−” No growth; settings: 6 h at RT
Description: as §2

[4] = test system: B. cereus; assay: Bacterial inactivation in Ringer's solution, colony agar plate count; type: cell-based; settings: 100 μM, RT, 1 h treatment
Description: (§3) A panel of G+F and G-bacteria were inactivated in their respective growth medium using compound VI, compound X, and compound XIV. All cells were grown in corresponding media to middle log phase, collected by centrifugation, re-suspended in Ringer's solution (RS), and treated at RT with 100 μM of compound VI, compound X, and compound XIV, which were added to the suspension as 100× concentrate in RS. Controls received RS only. At the end of the incubation, unreacted compound VI, compound X, and compound XIV were neutralized with 10 mM sodium thiophosphate during incubation at RT for 30 min. The viable cells were enumerated using serial dilutions by standard colony agar plate count. Table 1 summarizes the typical results of 1 h treatment of E. coli, P. fluorescens, Y. enterocolitica, B. cereus, S. aureus, and S. epidermidis with compound VI, compound X, and compound XIV.

[5] = test system: E. coli; assay: as above; type: cell-based; settings: 100 μM, RT, 1 h treatment
Description: as §3

[6] = test system: Y. enterocolitica; assay: as above; type: cell-based; settings: 100 μM, RT, 1 h treatment
Description: as §3

[7] = test system: S. epidermidis; assay: as above; type: cell-based; settings: 100 μM, RT, 1 h treatment
Description: as §3

[8] = test system: P. fluorescens; assay: as above; type: cell-based; settings: 100 μM, RT, 1 h treatment
Description: as §3

[9] = test system: S. aureus; assay: as above; type: cell-based; settings: 100 μM, RT, 1 h treatment
Description: as §3

[10] = target: Cytochrome C (Equus caballus, UniProt P00004); assay: Reactivity with Cytochrome C (electrospray MS); type: biochemical; settings: 8 μM protein; 0.1, 1, 10 mM compound; pH 7.0, 40° C.; 1, 4 and 30 h
Text: Using alkylating molecules to inactivate pathogens in blood product has potentially harmful side effect—their reaction with proteins may create neoantigens, i.e., they may become haptens. To assess the hapten potential of the compounds of Structure I, their ability to modify Cytochrome C was studied. Cytochrome C (MW of 12384 Da) was selected as a model protein because it contains a number of amino acids with nucleophilic side chains: 19 Lys, 2 Cys, 3 Asp, 9 Glu, 3 His, and 4 Tyr, which are potential targets for alkylation by the compounds of Structure I. Cytochrome C, 0.1 mg/mL (8 μM) solution in phosphate buffered saline was incubated with 0 (control), 0.1, 1, and 10 mM of compounds VI or X at pH 7.0 for 30 h at 40° C. Aliquots of the incubation mixtures were analyzed at 1, 4 and 30 h by electrospray mass spectrometry in the positive ionization mode with direct infusion into a LCQ Advantage mass spectrometer (Thermo-Finnigan, San Jose, CA) for the formation of covalent adducts of the protein with the test compounds.

[11] = Storage stability of formulated compounds; type: physicochemical
Text: The solutions of the free bases of the compound of Structure I are alkaline, and can absorb atmospheric carbon dioxide, which can compromise the stability of the solutions and accelerate their hydrolysis or other degradation. The free bases of the compounds of Structure I may be stabilized by addition of small amounts of basic compounds, for example of sodium hydroxide.
The compounds of Structure I can be converted to solid solutions by quick solidification by cooling of their solution in compounds which are solid at room temperature. For example, if compound VI is added, in amount of up to 3% to melted polyethylene glycol, and the resulted solution is cooled quickly, preferably in thin film, a solid solution of compound VI is formed. […] The stability of the solid solutions can be further enhanced by addition of traces of strong bases, as for example, of sodium hydroxide. The preferred solids for the preparing of solid solution of compounds of Structure I have melting points above 40° C. and below 120° C., are well soluble in aqueous media, are neutral in chemical character, and have no adverse effect on the sample to be treated by the process, or on its intended use.

[12] = test system: porcine parvovirus (PPV); assay: Viral inactivation in RS, endpoint dilution assay; type: cell-based; settings: 100 μM, RT
Description: as §1

Sequence of Cytochrome C (P00004 whole entry): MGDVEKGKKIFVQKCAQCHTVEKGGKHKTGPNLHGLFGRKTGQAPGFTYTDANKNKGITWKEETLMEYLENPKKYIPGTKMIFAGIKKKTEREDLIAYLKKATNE

SMILES | BVDV titer ([1]; incubation 1 h) [Log10TCID50/mL] | BVDV titer ([1]; incubation 3 h) [Log10TCID50/mL] | BVDV titer ([1]; incubation 6 h) | Growth / No growth ([2]; LB, 100 μM) | Growth / No growth ([2]; LB, 250 μM) | Growth / No growth ([2]; RBCC, 100 μM) | Growth / No growth ([2]; RBCC, 250 μM) | Growth / No growth ([2]; WB, 100 μM) | Growth / No growth ([2]; WB, 250 μM) | Growth / No growth ([3]; LB, 100 μM) | Growth / No growth ([3]; LB, 250 μM) | Growth / No growth ([3]; RBCC, 100 μM) | Growth / No growth ([3]; RBCC, 250 μM) | Growth / No growth ([3]; WB, 100 μM) | Growth / No growth ([3]; WB, 250 μM) | Titer [4] [Log10CFU/mL] | Titer [5] [Log10CFU/mL] | Titer [6] [Log10CFU/mL] | Titer [7] [Log10CFU/mL] | Titer [8] [Log10CFU/mL] | further results
CN(CCCCN(C)CCCN1CC1)CCCN(C)CCCN1CC1 [Compound X] | 3.88 | 2.94 | 0.84 Log10TCID50/mL | − | − | − | − | − | − | − | − | − | − | − | − | ≤1.00 | 3.98 | 4.85 | 7.32 | ≤1.00 | Titer [9]: 6.70 Log10CFU/mL; covalent adducts with cytochrome C [10]: absence of covalent adducts; long term storage stability ([11]; glycerol solution, addition of 0.1% of sodium hydroxide): significantly stabilized; PPV titer ([12]; RS pH 6.9, incubation 1 h): 3.09 Log10TCID50/mL; PPV titer ([12]; RS pH 6.9, incubation 3 h): 2.72 Log10TCID50/mL; PPV titer ([12]; RS pH 6.9, incubation 6 h): 0.78 Log10TCID50/mL
CN(CCCCN(C)CCCN1CC1)CCCN1CC1 [Compound VI, N^1,N^4-bis(3-(aziridin-1-yl)propyl)-N^1,N^4-dimethylbutane-1,4-diamine] | 3.27 | 1.30 | below the limit of detection and BLD | − | − | − | − | − | − | − | − | − | − | − | − | 2.45 | 4.60 | 6.72 | 8.11 | 2.78 | Growth / No growth ([2]; LB, 500 μM): −; Growth / No growth ([2]; RBCC, 500 μM): −; Growth / No growth ([2]; WB, 500 μM): −; Growth / No growth ([3]; LB, 500 μM): −; Growth / No growth ([3]; RBCC, 500 μM): −; Growth / No growth ([3]; WB, 500 μM): −; Titer [9]: 7.08 Log10CFU/mL; covalent adducts with cytochrome C [10]: absence of covalent adducts; storage stability [11]: significantly higher storage stability; PPV titer ([12]; RS pH 6.9, incubation 1 h): 2.95 Log10TCID50/mL; PPV titer ([12]; RS pH 6.9, incubation 3 h): 0.85 Log10TCID50/mL; PPV titer ([12]; RS pH 6.9, incubation 6 h): below the limit of detection and BLD
